pIC50: −log10 of the molar value.
Columns and labels:
[1] = target: T1, C-terminal domain (CTD) of human STING (Homo sapiens, UniProt Q86WV6); experiment: STING binding FP assay I; design: recombinant human STING protein (155-379); conditions: 35 nM STING, 4 nM Probe 1
Description: (§1) The interaction between molecules and the C-terminal domain (CTD) of human STING was evaluated using a competition binding assay. In this assay, recombinant human STING protein (155-379) and a STING binding fluorescent probe were employed. Upon binding of the probe to STING, the rotation of the fluorescent probe is slowed due to the larger molecular size of the protein-bound complex. As a result, emitted light retains its plane of polarization, leading to an increase in fluorescence polarization. Molecules competing for the probe binding site displace the probe, which leads to rapid randomization of the polarization plane of the emitted light and a subsequent decrease in measured fluorescence polarization signal. Change in polarization was measured, allowing a comparative evaluation of the binding affinities of different compounds to the target protein.
(§2) The assay was performed in 96-well plates (ThermoFisher, cat.# 237108) containing 100µl : 10 µL test compound in 10% DMSO and buffer A (150 mM NaCl, 50 mM HEPES pH 7.5, 1 mM DTT) + 90 µL prepared master mix solution of: 4 nM fluorescein-labelled STING ligand (Probe 1; synthesis described above) in buffer A + 0.055% Tween-20 (v/v) and 35 nM STING in buffer A. Post mixing, plates were agitated at 600rpm and incubated for 20 min at room temperature. Subsequent measurements of the fluorescence polarization signal were made on a BioTek Synergy-H1 plate reader, using a polarization filter; Exc: 485/20 nm, Em: […]) with a gain-setting of 75. IC50 values were determined using a standard non-linear regression four-parameter curve fit in Graphpad Prism.

[2] = target: T1, C-terminal domain (CTD) of human STING; experiment: STING binding FP assay II; design: recombinant human STING protein (155-379); conditions: 7 nM STING
Description: as §1, §2
The procedure for STING binding FP assay II is the same as described for STING binding FP assay I, except for a lower STING concentration. In STING binding FP assay II, a concentration of 7 nM STING in buffer A was used.

STING [3] = target: T2, STING (Homo sapiens, UniProt Q86WV6); experiment: Inhibition of STING-agonist-induced IFN-β and CXCL10 release by Compounds A9 and A11; assay type: cell-based; design: host or cells: HFF-1 human foreskin fibroblasts; conditions: 1 to 2 hours prior to, simultaneously with, or 15 minutes after diABZI c3
T2 sequence (Q86WV6 whole entry): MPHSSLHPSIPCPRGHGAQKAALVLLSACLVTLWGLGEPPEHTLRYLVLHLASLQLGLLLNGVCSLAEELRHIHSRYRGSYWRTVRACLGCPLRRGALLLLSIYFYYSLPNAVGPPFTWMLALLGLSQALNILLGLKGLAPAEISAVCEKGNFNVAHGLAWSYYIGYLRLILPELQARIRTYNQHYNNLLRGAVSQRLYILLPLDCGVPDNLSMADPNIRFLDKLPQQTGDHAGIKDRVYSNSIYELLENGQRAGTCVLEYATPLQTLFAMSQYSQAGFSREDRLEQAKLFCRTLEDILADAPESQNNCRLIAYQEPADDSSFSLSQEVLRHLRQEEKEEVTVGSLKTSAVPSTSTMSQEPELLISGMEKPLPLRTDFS
Description: HFF-1 cells were also assessed for inhibition of STING-agonist-induced IFN-β and CXCL10 release in cells treated with Compounds A9 and A11. […] In contrast, pre-treating cells for 1 to 2 hours prior to diABZI c3, simultaneous treatment with A9 and diABZI c3, or pre-treating cells for 15 minutes with diABZI c3 followed by A9 treatment led to a decrease in the IFN media concentration to ~100 U/mL. […] In contrast, cells pre-treated for 1 to 2 hours prior to diABZI c3, simultaneous treatment with A9 and diABZI c3, or pre-treating cells for 15 minutes with diABZI c3 followed by A9 treatment led to a decrease in the CXCL10 media concentration to […] (Figure 9B, unfiled bars).
In contrast, pre-treating cells for 1 to 2 hours prior to diABZI c3, simultaneous treatment with A11 and diABZI c3, or pre-treating cells for 15 minutes with diABZI c3 followed by A11 treatment led to a decrease in the IFN media concentration to -10 - 20 U/mL. […] In contrast, cells pre-treated for 1 to 2 hours prior to diABZI c3, simultaneous treatment with A11 and diABZI c3, or pre-treating cells for 15 minutes with diABZI c3 followed by A11 treatment led to a decrease in the CXCL10 media concentration to -10 - 20 pg/mL (Figure 9B; filled bars).

STING [4] = target: T2, STING; experiment: Western Blot analysis for S1 STING ligand antagonism in primary human skin fibroblasts; assay type: cell-based; design: host or cells: HFF-1 human foreskin fibroblasts; conditions: 5 µM; 2 h or 1 h before, simultaneously with, or 15 minutes after 0.3 µM diABZI
Description: To assess whether S1 STING ligands inhibit STING activation, primary human skin fibroblasts (Figure 5) or HFF-1 cells (Figure 6) were treated with various compounds which comprise only an S1 ligand domain and a Linker domain before undergoing Western Blot analysis as described below. Compounds A9, A11, A26 and A30 used in the following experiments share a common S1 ligand, which is also shared by Example compounds 1, 3, 5-29, 33-38.
Cells were incubated with A9 or A11 for 1 or 2 hours before addition of diABZI c3, treated with test compound and diABZI c3 simultaneously, or treated with A9 or A11 after 15 minutes incubation with diABZI c3. As a control, cells were also treated with diABZI c3 alone.

T1 sequence (Q86WV6 155-379): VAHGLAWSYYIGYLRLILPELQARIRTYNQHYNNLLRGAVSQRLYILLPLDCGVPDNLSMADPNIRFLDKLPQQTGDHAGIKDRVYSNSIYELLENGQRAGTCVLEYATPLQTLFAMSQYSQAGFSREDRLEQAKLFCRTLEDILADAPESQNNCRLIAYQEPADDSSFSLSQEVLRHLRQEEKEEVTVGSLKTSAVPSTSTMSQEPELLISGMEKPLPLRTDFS

Row | Structure (SMILES) | pIC50 [1] | pIC50 [2] | further results
1 | CCn1nc(C)cc1C(=O)N=c1n(C)c2cc(C(N)=O)ccc2n1CCC(CCn1c(=NC(=O)c2cc(C)nn2CC)n(C)c2cc(C(N)=O)ccc21)OCC(=O)NCCOCCOCCOCCNc1cccc2c1C(=O)N(C1CCC(=O)NC1=O)C2=O (centres unmarked) [Example 1, 1-[3-({N-2-[2-(2-{2-[2-(2,6-Dioxo-3-piperidyl)-1,3-dioxo-4-isoindolinylamino]ethoxy}ethoxy)ethoxy]ethylcarbamoyl}methoxy)-5-{5-carbamoyl-2-[(1-ethyl-3-methyl-5-pyrazolyl)carbonylimino]-3-methyl-2,3-dihydro-1H-1,3-benzimidazol-1-yl}pentyl]-2-[(1-ethyl-3-methyl-5-pyrazolyl)carbonylimino]-3-methyl-2,3-dihydro-1H-1 ,3-benzimidazole-5-carboxamide] | > 7.52 | – | –
2 | CCn1nc(C)cc1C(=O)N=c1n(C)c2cc(C(N)=O)ccc2n1CCC(CCn1c(=NC(=O)c2cc(C)nn2CC)n(C)c2cc(C(N)=O)ccc21)OCC(=O)NCCOCCOCCOCCOCCNc1cccc2c1C(=O)N(C1CCC(=O)NC1=O)C2=O (centres unmarked) [Example 29, 1-{3-[(N-2-{2-[2-(2-{2-[2-(2,6-Dioxo-3-piperidyl)-1,3-dioxo-4-isoindolinylamino]ethoxy}ethoxy)ethoxy]ethoxy}ethylcarbamoyl)methoxy]-5-{5-carbamoyl-2-[(1-ethyl-3-methyl-5-pyrazolyl)carbonylimino]-3-methyl-2,3-dihydro-1H-1 ,3-benzimidazol-1-yl}pentyl}-2-[(1-ethyl-3-methyl-5-pyrazolyl)carbonylimino]-3-methyl-2,3-dihydro-1H-1,3-benzimidazole-5-carboxamide] | > 7.52 | 8.74 | –
3 | CCn1nc(C)cc1C(=O)N=c1n(C)c2cc(C(N)=O)ccc2n1CCC(CCn1c(=NC(=O)c2cc(C)nn2CC)n(C)c2cc(C(N)=O)ccc21)OCC(=O)N1CCc2cc(OC)ccc2C1 (centres unmarked) [Example A9, 1-(5-{5-Carbamoyl-2-[(1-ethyl-3-methyl-5-pyrazolyl)carbonylimino]-3-methyl-2,3-dihydro-1H-1,3-benzimidazol-1-yl}-3-[2-(6-methoxy-1,2,3,4-tetrahydro-2-isoquinolyl)-2-oxoethoxy]pentyl)-2-[(1-ethyl-3-methyl-5-pyrazolyl)carbonylimino]-3-methyl-2,3-dihydro-1H-1,3-benzimidazole-5-carboxamide] | – | – | IFN media concentration (STING [3]; 5 µM): ~ 100 U/mL; CXCL10 media concentration (STING [3]; A9 5 µM): ~ 30 U/mL; LC3B lipidation (STING [4]): reduced LC3B lipidation; P-STING intensity (activation of STING) (STING [4]): reduced intensity of P-STING; P-TBK1 intensity (STING [4]): reduced P-TBK1 intensity

Now from value to molecule, other results behind:

Row | pIC50 [1] | pIC50 [2] | Structure (SMILES) | further results
4 | > 7.52 | 8.62 | CCn1nc(C)cc1C(=O)N=c1n(C)c2cc(C(N)=O)ccc2n1CCC(CCn1c(=NC(=O)c2cc(C)nn2CC)n(C)c2cc(C(N)=O)ccc21)OCC(=O)NCCOCCOCCOCCOCC(=O)N[C@H](C(=O)N1C[C@H](O)C[C@H]1C(=O)NCc1ccc(-c2scnc2C)cc1)C(C)(C)C (some centres unmarked) [Example 5] | –
5 | > 7.52 | – | CCn1nc(C)cc1C(=O)N=c1n(C)c2cc(C(N)=O)ccc2n1CCC(CCn1c(=NC(=O)c2cc(C)nn2CC)n(C)c2cc(C(N)=O)ccc21)OCC(=O)NCCOCCOCCOCC(=O)N[C@H](C(=O)N1C[C@H](O)C[C@H]1C(=O)NCc1ccc(-c2scnc2C)cc1)C(C)(C)C (some centres unmarked) [Example 28] | –
